Measurements from patent US8324197B2, “Transplatinum complexes with N2O2 donor sets as cytotoxic and antitumor agents” (Virginia Commonwealth University, priority 2005, dated 2012).
Where two headings read alike, the source gives them in different places. Marks after values point to notes of the source that are not given here. Values belong to the molecule of their own block, whether it stands above or below them.

How the values were obtained:
[1] = Solubility of TPA carboxylates, Example 6; type: physicochemical; conditions: aqueous; table title ambient temperature, text 37° C.
[2] = Initial hydrolysis of TPA carboxylates monitored by HPLC at 37° C.; type: physicochemical; conditions: H2O; for k1, initial hydrolysis rate constant: I=0.02 M; for hydrolysis occurring after 9 h: HPLC
Method: The slowest initial hydrolysis rate was found for complex 2c t-[Pt(OAc)2(NH3)(2-pic)], with just 4% hydrolysis occurring after 9 h. The hydrolysis of the formate complex 4f was the fastest, with 24% hydrolysis occurring after 9 h. The hydrolysis rates of the acetate complexes followed the pattern 2c<4c<3c. […] Thus, hydrolysis of the acetate complexes is slowed by an approximate order of magnitude compared to their direct chloro analogs but there is little difference in the present case between 3- and 4-picoline. Steric hindrance therefore predominates over the electronic effects of the methyl group. In the case of the chloride complexes, the 3-pic directs less electron density to the platinum rendering it less nucleophilic relative to the 2-pic and 4-pic. 14 We observe the same trend in the acetate complexes, but the effect is lessened due to the carboxylate group being a weak ligand, with a low trans influence and trans effect.^11

[3] = cited from earlier work; for k1, rate constant for the first aquation step: literature values of other platinum compounds
[4] = system: 41M; assay: Growth inhibition in human ovarian cancer cell line panel, 96 h exposure; type: cell-based; conditions: for 41M RF: RF = (IC50 Resistant)/(IC50 Sensitive)
Method: (§1) It is noteworthy that the acetate compounds maintain cytotoxicity with low resistance factors in all cases. The trans-[Pt(OAc)2(NH3)2] compound is also very water-soluble but the cytotoxicity of >100 μM confirms the requirement for a planar amine to enhance cytotoxicity in the trans geometry.

[5] = system: A2780; assay: as above; type: cell-based; conditions: for A2780 RF: RF = (IC50 Resistant)/(IC50 Sensitive)
Method: as §1

[6] = system: CH1; assay: as above; type: cell-based; conditions: for CH1 RF: RF = (IC50 Resistant)/(IC50 Sensitive)
Method: as §1

[7] = literature; cited from earlier work
[8] = cited from earlier work; for k1, first hydrolysis step to the monoaqua complex: analogous dichloride complexes, I=0.1 M
[9] = system: ovarian cancer cell line panel; assay: Cytotoxicity in ovarian cancer cell line panel (cell line not specified); type: cell-based, human
Method: as §1

[10] = pKa of corresponding TPA diaqua complexes by potentiometric titration with NaOH; type: physicochemical; conditions: corresponding diaqua complex trans-[Pt(OH2)2(L)(L′)], ambient temperature
Method: (§2) The aqueous solubility of the acetate compounds and the acid dissociation constants of the corresponding aqua species are given in Table 1. Use of acetates enhances aqueous solubility which is dependent on the exact nature of the donor ligands. The pKa values were determined by potentiometric titration of solutions of trans-[Pt(H2O)2(L)(L′)]^2+ (formed by the dissolution of the isolated trans-[Pt(NO3)2(L)(L′)]) with NaOH. […] (X=2,3,4-Me).^30

[11] = Aqueous solubility of TPA-acetate complexes (sequential addition of water); type: physicochemical; conditions: ambient temperature
Method: as §2

[12] = corresponding diaqua complex; other compounds of the series 2-4c given for comparison (refs 11, 14); cited from earlier work

Molecule: CCC[NH][Pt]([NH]CCC)([O]C(=O)CCl)[O]C(=O)CCl [cis-[Pt(PrNH2)2(ClCH2CO2)2]]
rate constant of substitution by water of the first carboxylate ligand ([3]; cis carboxylate complex, literature): 4.38e-05 s⁻¹

Molecule: NCCNCCN.[Cl-].[Pt+2] [[PtCl(dien)]+]
k1, rate constant for the first aquation step [3]: (6.50 ± 0.13) × 10^−5 s^−1

Molecule: N.N.[Cl][Pt+2][Cl] [Transplatin, trans-[PtCl2(NH3)2]]
k1, rate constant for the first aquation step [3]: 0.00019 s⁻¹
time to complete reaction with N-AcMet [7]: ≤ 5 h

Molecule: Cc1cccnc1.N.[Cl][Pt][Cl] [3-pic]
k1, first hydrolysis step to the monoaqua complex [8]: 0.000127 s⁻¹

Molecule: N.N.[Cl][Pt][Cl] [Cisplatin, cis-[PtCl2(NH3)2], reference compound]
IC50 [4]: 1.4 µM
41M RF [4]: (6.1)
IC50 [6]: 0.1 µM
CH1 RF [6]: (6.7)
k1, rate constant for the first aquation step [3]: 5.18e-05 s⁻¹
hydrolysis rate ([8]; at 20° C., literature): 5.18e-05 s⁻¹

Molecule: Cc1ccccn1.N.[Cl][Pt][Cl] [2-pic]
k1, first hydrolysis step to the monoaqua complex [8]: 2.6e-05 s⁻¹

Molecule: [NH2][Pt]1([NH2])[O]C(=O)C2(CCC2)C(=O)[O]1 [Carboplatin, cis-[Pt(CBDCA)(NH3)2]]
hydrolysis rate constant ([3]; aqueous solution): < 5e-09 s⁻¹
k1, rate constant for the first aquation step [3]: <10^−8 s^−1
hydrolysis rate ([3]; phosphate buffer at 310 K): 7.2e-07 s⁻¹

Molecule: Cc1ccncc1.N.[Cl][Pt][Cl] [4-pic]
k1, first hydrolysis step to the monoaqua complex [8]: 5.2e-05 s⁻¹

Molecule: CC(=O)[O-].CC(=O)[O-].Cc1ccccn1.N.[Pt+2] [2c, trans-[Pt(OAc)2(NH3)(2-pic)]]
pKa1 [12]: 4.03
pKa2 [12]: 7.1
hydrolysis occurring after 9 h [2]: 4%
k1, initial hydrolysis rate constant [2]: 1.07e-06 s⁻¹
Solubility (mg/mL), TPA Acetates [1]: 10 mg/mL

Further lines, with some results ahead:

Solubility (mg/mL), TPA Substituted Carboxylates [1]: Insoluble
Molecule: Cc1ccncc1.N.O=C([O-])C(F)(F)F.O=C([O-])C(F)(F)F.[Pt+2] [4g, trans-[Pt(Tfa)2(NH3)(4-pic)]]

k1, initial hydrolysis rate constant [2]: 5.61e-06 s⁻¹
Molecule: Cc1ccncc1.N.O=C(CO)[O][Pt][O]C(=O)CO [4d, trans-[Pt(OAcOH)2(NH3)(4-pic)]]

IC50 [4]: 14 µM
IC50 [5]: 12.8 µM
IC50 [6]: 19 µM
Molecule: trans-[diacetatobis(pyridine)platinum(II)] [trans-[Pt(OAc)2(py)2]]
41M RF [4]: (0.32)
A2780 RF [5]: (0.90)
CH1 RF [6]: (0.22)

hydrolysis occurring after 9 h [2]: 24%
Solubility (mg/mL), TPA Substituted Carboxylates [1]: 0.29 mg/mL
Molecule: trans-[Pt(OAcCl)2(NH3)(4-pic)] [4f]

pKa1 [10]: 4.0^b
pKa2 [10]: 7.08
Solubility [11]: 21 mg/mL
Molecule: CC(=O)[O][Pt][O]C(C)=O.N.N [trans-[Pt(OAc)2(NH3)2]]
IC50 [9]: > 100 µM

k1, initial hydrolysis rate constant [2]: 3.52e-06 s⁻¹
Solubility (mg/mL), TPA Acetates [1]: 11.4 mg/mL
Molecule: CC(=O)[O][Pt][O]C(C)=O.Cc1cccnc1.N [3c]
pKa1 [12]: 3.97
pKa2 [12]: 6.78

Solubility (mg/mL), TPA Substituted Carboxylates [1]: Insoluble
Molecule: Cc1ccncc1.N.O=C([O-])c1ccccc1.O=C([O-])c1ccccc1.[Pt+2] [4h, trans-[Pt(OBz)2(NH3)(4-pic)]]

k1, initial hydrolysis rate constant [2]: 3.26e-06 s⁻¹
Solubility (mg/mL), TPA Acetates [1]: 13.2 mg/mL
Molecule: CC(=O)[O][Pt][O]C(C)=O.Cc1ccncc1.N [4c]
pKa1 [12]: 3.94
pKa2 [12]: 6.88

IC50 [4]: 22 µM
IC50 [5]: 13 µM
IC50 [6]: 17 µM
Molecule: trans-[diacetato(ammine)(quinoline)platinum(II)] [trans-[Pt(OAc)2(NH3)(quin)]]
41M RF [4]: (1.00)
A2780 RF [5]: (1.46)
CH1 RF [6]: (0.48)
